Laboratory results published in ChEMBL document CHEMBL5291721, “A preclinical secondary pharmacology resource illuminates target-adverse drug reaction associations of marketed drugs” (Nat Commun, 2023).

What was measured:
[1] = biological target: T1, Adenosine receptor A3 (Homo sapiens, UniProt P0DMS8)
T1 sequence (P0DMS8 whole entry): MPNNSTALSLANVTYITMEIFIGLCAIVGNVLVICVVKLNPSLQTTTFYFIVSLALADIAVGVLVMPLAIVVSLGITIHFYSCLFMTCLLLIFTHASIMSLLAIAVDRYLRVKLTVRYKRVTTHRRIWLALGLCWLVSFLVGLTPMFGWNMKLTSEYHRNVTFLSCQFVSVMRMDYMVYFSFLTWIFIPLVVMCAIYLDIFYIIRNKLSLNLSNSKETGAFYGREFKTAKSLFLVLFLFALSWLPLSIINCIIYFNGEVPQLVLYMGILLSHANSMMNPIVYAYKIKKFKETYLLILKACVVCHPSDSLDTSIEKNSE

[2] = biological target: T2, Alpha-2A adrenergic receptor (Homo sapiens, UniProt P08913); format: functional, cell-based
T2 sequence (P08913 whole entry): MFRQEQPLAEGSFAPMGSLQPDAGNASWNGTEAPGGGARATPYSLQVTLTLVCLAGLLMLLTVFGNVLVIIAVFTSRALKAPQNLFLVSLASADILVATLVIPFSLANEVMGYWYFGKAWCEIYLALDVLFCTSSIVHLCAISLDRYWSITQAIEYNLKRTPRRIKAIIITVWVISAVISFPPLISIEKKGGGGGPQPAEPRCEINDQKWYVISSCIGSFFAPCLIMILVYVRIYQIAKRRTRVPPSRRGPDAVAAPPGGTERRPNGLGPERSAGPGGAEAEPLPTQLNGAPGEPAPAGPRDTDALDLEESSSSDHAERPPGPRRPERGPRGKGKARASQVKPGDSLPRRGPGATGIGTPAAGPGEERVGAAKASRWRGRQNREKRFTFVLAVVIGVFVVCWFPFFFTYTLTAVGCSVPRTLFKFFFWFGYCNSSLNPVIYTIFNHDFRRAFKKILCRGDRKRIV

[3] = biological target: T3, B2 bradykinin receptor (Homo sapiens, UniProt P30411)
T3 sequence (P30411 whole entry): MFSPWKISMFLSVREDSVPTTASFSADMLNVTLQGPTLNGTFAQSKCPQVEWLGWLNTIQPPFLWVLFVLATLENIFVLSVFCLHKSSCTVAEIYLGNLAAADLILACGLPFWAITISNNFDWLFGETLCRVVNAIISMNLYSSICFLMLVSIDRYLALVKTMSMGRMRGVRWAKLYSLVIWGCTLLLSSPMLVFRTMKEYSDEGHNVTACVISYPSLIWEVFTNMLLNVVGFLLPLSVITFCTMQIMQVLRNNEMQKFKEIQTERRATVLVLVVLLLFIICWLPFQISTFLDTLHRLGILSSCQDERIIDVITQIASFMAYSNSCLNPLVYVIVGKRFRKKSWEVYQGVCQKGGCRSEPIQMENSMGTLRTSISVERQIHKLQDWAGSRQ

[4] = biological target: Muscarinic acetylcholine receptor M3 (Homo sapiens, UniProt P20309)
[5] = biological target: T4, Glucocorticoid receptor (Homo sapiens, UniProt P04150)
T4 sequence (P04150 whole entry): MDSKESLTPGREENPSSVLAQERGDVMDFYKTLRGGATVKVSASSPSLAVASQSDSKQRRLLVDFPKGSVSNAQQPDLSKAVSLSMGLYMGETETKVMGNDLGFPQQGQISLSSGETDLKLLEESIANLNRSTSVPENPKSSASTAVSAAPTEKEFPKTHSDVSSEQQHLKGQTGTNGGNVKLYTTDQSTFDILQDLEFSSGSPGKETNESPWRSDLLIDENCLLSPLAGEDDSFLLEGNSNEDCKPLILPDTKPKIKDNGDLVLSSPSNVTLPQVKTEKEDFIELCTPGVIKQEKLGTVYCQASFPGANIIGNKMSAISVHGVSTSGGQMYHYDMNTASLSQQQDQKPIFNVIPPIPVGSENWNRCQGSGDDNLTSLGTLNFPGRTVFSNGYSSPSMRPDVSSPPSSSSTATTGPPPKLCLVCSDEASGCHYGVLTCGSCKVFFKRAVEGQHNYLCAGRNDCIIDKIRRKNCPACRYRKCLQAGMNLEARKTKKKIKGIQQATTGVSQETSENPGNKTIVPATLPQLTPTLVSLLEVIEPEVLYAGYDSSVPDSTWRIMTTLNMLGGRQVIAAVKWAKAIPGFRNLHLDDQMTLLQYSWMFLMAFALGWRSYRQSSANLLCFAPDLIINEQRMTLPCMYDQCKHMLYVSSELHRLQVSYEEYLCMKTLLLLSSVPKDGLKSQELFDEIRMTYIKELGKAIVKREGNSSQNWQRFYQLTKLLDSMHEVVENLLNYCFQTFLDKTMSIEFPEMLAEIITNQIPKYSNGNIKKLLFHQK

[6] = biological target: T5, Equilibrative nucleoside transporter 1 (Homo sapiens, UniProt Q99808)
T5 sequence (Q99808 whole entry): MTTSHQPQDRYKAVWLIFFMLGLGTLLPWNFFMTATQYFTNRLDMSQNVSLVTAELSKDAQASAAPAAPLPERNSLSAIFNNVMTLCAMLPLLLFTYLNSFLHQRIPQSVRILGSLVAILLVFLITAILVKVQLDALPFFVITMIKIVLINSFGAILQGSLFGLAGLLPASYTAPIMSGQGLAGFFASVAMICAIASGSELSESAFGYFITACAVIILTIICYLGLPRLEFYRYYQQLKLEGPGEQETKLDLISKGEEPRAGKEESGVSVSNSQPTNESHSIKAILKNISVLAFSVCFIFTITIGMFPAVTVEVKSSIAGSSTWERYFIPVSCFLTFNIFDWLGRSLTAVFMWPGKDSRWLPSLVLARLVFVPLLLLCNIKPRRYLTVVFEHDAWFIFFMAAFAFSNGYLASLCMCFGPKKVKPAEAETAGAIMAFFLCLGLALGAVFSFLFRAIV

[7] = biological target: Sodium-dependent noradrenaline transporter (Homo sapiens, UniProt P23975)
Note: assay procedure not described here.

Chain of Sodium-dependent noradrenaline transporter (P23975 whole entry): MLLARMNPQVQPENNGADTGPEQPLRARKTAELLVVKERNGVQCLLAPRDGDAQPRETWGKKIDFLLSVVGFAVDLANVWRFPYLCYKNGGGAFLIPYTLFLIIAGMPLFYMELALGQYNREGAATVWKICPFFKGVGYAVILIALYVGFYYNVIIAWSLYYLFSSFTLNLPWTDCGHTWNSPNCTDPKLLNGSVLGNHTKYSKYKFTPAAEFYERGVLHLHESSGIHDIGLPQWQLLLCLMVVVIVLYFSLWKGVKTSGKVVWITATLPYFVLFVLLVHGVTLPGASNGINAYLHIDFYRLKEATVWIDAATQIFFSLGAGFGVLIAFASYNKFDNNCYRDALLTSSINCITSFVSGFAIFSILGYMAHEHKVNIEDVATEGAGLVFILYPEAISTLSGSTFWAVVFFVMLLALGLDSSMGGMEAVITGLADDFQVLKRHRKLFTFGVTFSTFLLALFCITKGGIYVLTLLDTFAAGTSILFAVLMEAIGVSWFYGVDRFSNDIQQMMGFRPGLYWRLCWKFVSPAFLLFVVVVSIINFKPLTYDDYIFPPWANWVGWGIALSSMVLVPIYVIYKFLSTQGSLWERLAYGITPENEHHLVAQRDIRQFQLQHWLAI
Chain of Muscarinic acetylcholine receptor M3 (P20309 whole entry): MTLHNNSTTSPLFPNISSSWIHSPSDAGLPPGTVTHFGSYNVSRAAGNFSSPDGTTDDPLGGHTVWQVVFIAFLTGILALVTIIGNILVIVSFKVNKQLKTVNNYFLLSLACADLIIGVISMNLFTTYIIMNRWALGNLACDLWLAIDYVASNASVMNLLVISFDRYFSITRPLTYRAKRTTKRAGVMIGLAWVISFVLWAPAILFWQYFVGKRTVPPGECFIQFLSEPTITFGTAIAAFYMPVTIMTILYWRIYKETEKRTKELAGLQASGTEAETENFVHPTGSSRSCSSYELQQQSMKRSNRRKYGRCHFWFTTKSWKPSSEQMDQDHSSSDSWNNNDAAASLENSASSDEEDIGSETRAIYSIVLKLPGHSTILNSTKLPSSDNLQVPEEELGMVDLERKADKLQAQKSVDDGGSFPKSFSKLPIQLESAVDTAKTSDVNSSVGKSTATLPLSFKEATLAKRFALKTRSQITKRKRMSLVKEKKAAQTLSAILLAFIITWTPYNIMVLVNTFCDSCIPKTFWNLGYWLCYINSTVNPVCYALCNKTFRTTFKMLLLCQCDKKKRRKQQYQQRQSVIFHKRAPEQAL

SMILES | AC50 [1] [µM] | AC50 [2] [µM] | AC50 [3] [µM] | AC50 [4] [µM] | AC50 [5] [µM] | AC50 [6] [µM] | AC50 [7] [µM]
Oc1ccc2c(c1)[C@@]13CCCC[C@@]1(O)[C@@H](C2)N(CC1CCC1)CC3 [BUTORPHANOL] | > 30 | > 30 | > 30 | > 30 | > 30 | > 30 | > 30
CC1=C(C)C(=O)C(C(CCCCCC(=O)O)c2ccccc2)=C(C)C1=O (configuration not stated) [SERATRODAST] | > 30 | > 30 | > 30 | > 30 | > 30 | > 30 | > 30
CCN(CC)C(=O)Nc1ccc(OCC(O)CNC(C)(C)C)c(C(C)=O)c1 (configuration not stated) [CELIPROLOL] | > 30 | > 30 | > 30 | > 30 | > 30 | > 30 | > 30
COc1ccc2nc3cc(Cl)ccc3c(Nc3cc(CN4CCCC4)c(O)c(CN4CCCC4)c3)c2n1 [PYRONARIDINE] | 15 | > 30 | > 30 | 25 | > 30 | 21 | 8.1
CCCCCCCCCCCCCCCCCCCCCC(=O)Nc1ccn([C@@H]2O[C@H](CO)[C@@H](O)[C@@H]2O)c(=O)n1 [ENOCITABINE] | > 30 | > 30 | > 30 | > 30 | > 30 | > 30 | > 30
C=C1/C(=C\C=C2/CCC[C@]3(C)[C@@H]([C@H](C)/C=C/[C@@H](O)C4CC4)CC[C@@H]23)C[C@@H](O)C[C@@H]1O [CALCIPOTRIENE] | 12 | > 30 | > 30 | > 30 | > 30 | > 30 | 20
Cc1ncc2n1-c1ccc(Cl)cc1C(c1ccccc1F)=NC2 [MIDAZOLAM] | > 30 | > 10 | > 30 | > 30 | > 30 | > 30 | > 30
CCN1CCCC1CNC(=O)c1cc(S(=O)(=O)CC)c(N)cc1OC (configuration not stated) [AMISULPRIDE] | > 30 | 13 | > 30 | > 30 | > 30 | > 30 | > 30
COc1cc2c(cc1OC)C(CCc1ccc(Cl)cc1)N(C)CC2 (configuration not stated) [METHOPHOLINE] | > 30 | > 10 | > 30 | > 30 | > 30 | > 30 | > 30
COc1ccc(-c2noc(CC(=O)O)c2-c2ccc(OC)cc2)cc1 [MOFEZOLAC] | > 30 | > 30 | > 30 | > 30 | > 30 | > 30 | > 30
CC(=O)O[C@H](CC(=O)[O-])C[N+](C)(C)C [ACETYLCARNITINE] | > 30 | > 30 | > 30 | > 30 | > 30 | > 30 | > 30
